Experimental data reported in ChEMBL document CHEMBL6115034, “Pseudonatural Flavonols as Novel Copper Ionophores for NAFLD Intervention via Synergistic Copper Delivery and Flavonoid Activity” (J Med Chem, 2025).
Active and inactive are the calls of the source. The rule behind the calls is not given here.

Experiments:
HepG2 [1] = experiment: Anti-NAFLD activity in palmitic acid human HepG2 NAFLD cell model assessed as increase in lipid droplet level at 5 uM compound administrated as copper complex measured at 24 hrs by Oil Red O staining based assay relative to control; assay type: functional
HepG2 [2] = experiment: Anti-NAFLD activity in palmitic acid human HepG2 NAFLD cell model assessed as upregulation of PRDX1 expression at 0.5 uM incubated for 24 hrs in presence of CuCl2 by mRNA sequencing analysis; assay type: functional, cell-based
Mus musculus [3] = experiment: Anti-NAFLD activity in high-fat diet-induced male C57BL/6J mouse model assessed as increase in lactate level at 125 mg/kg, po compound administrated as copper complex measured for 10 weeks by LC-MS/MS analysis; assay type: functional, organism-based
HepG2 [4] = experiment: Anti-NAFLD activity in palmitic acid human HepG2 NAFLD cell model assessed as upregulation of POR expression at 0.5 uM incubated for 24 hrs in presence of CuCl2 by mRNA sequencing analysis; assay type: functional, cell-based
HepG2 [5] = experiment: Cytotoxicity against human HepG2 cells assessed as cell viability at 0.1 to 5 uM measured at 24 hrs by MTT assay; assay type: functional, cell-based; conditions: dose 0.1-5 µM
[6] = Induction of copper transporting activity in human HeLa cells assessed as fold increase in intracellular copper levels at 2 uM incubated for 4 hrs by ICP-MS analysis; assay type: functional
HepG2 [7] = experiment: Anti-NAFLD activity in palmitic acid human HepG2 NAFLD cell model assessed as upregulation of MT1X expression at 0.5 uM incubated for 24 hrs in presence of CuCl2 by mRNA sequencing analysis; assay type: functional, cell-based
HepG2 [8] = experiment: Anti-NAFLD activity in palmitic acid human HepG2 NAFLD cell model assessed as increase in ROS level at 5 uM compound administrated as copper complex measured at 24 hrs by DCFH-DA probe based flow cytometry analysis; assay type: functional
Mus musculus [9] = experiment: Anti-NAFLD activity in high-fat diet-induced male C57BL/6J mouse model assessed as increase in liver weight at 125 mg/kg, po compound administrated as copper complex measured for 10 weeks […]; assay type: functional, organism-based
Mus musculus [10] = experiment: Anti-NAFLD activity in high-fat diet-induced male C57BL/6J mouse model assessed as increase in F6P level in liver at 125 mg/kg, po compound administrated as copper complex measured for 10 weeks by LC-MS/MS analysis; assay type: functional, organism-based
HepG2 [11] = experiment: Anti-NAFLD activity in palmitic acid human HepG2 NAFLD cell model assessed as upregulation of NQO1 expression at 0.5 uM incubated for 24 hrs in presence of CuCl2 by mRNA sequencing analysis; assay type: functional, cell-based
[12] = Stability of compound in PBS buffer in presence of EDTA by UV-Vis spectrophotometer analysis; assay type: physicochemical
[13] = Toxicity in male C57BL/6 mouse assessed as spleen lesion at 125 mg/kg, po compound administrated as copper complex measured for 10 weeks; assay type: organism-based; conditions: in vivo, 1680 h
HepG2 [14] = experiment: Anti-NAFLD activity in palmitic acid human HepG2 NAFLD cell model assessed as upregulation of CYP4F3 expression at 0.5 uM incubated for 24 hrs in presence of CuCl2 by mRNA sequencing analysis; assay type: functional, cell-based
[15] = Stability of compound in PBS buffer in presence of histidine by UV-Vis spectrophotometer analysis; assay type: physicochemical
Mus musculus [16] = experiment: Anti-NAFLD activity in high-fat diet-induced male C57BL/6J mouse model assessed as increase in lipid droplets accumulation in liver at 125 mg/kg, po compound administrated as copper complex measured for 10 weeks by oil red O staining based analysis; assay type: functional, organism-based
Mus musculus [17] = experiment: Anti-NAFLD activity in high-fat diet-induced male C57BL/6J mouse model assessed as increase in copper level in serum at 125 mg/kg, po compound administrated as copper complex measured for 10 weeks by ICP-MS analysis; assay type: functional, organism-based
Mus musculus [18] = experiment: Anti-NAFLD activity in high-fat diet-induced male C57BL/6J mouse model assessed as increase in glucose level serum at 125 mg/kg, po compound administrated as copper complex measured for 10 weeks; assay type: functional, organism-based
HepG2 [19] = experiment: Anti-NAFLD activity in palmitic acid human HepG2 NAFLD cell model assessed as downregulation of STAT3 expression at 0.5 uM incubated for 24 hrs in presence of CuCl2 by mRNA sequencing analysis; assay type: functional, cell-based
Mus musculus [20] = experiment: Anti-NAFLD activity in high-fat diet-induced male C57BL/6J mouse model assessed as increase in malic acid level at 125 mg/kg, po compound administrated as copper complex measured for 10 weeks by LC-MS/MS analysis; assay type: functional, organism-based
[21] = Toxicity in male C57BL/6 mouse assessed as kidney lesion at 125 mg/kg, po compound administrated as copper complex measured for 10 weeks; assay type: organism-based; conditions: in vivo, 1680 h
HepG2 [22] = experiment: Anti-NAFLD activity in palmitic acid human HepG2 NAFLD cell model assessed as upregulation of fatty acid metabolism related genes at 0.5 uM incubated for 24 hrs in presence of CuCl2 by mRNA sequencing analysis; assay type: functional, cell-based
HepG2 [23] = experiment: Anti-NAFLD activity in palmitic acid human HepG2 NAFLD cell model assessed as effect on HMOX1 expression at 0.5 uM incubated for 24 hrs in presence of CuCl2 by mRNA sequencing analysis; assay type: functional, cell-based
HepG2 [24] = experiment: Anti-NAFLD activity in palmitic acid human HepG2 NAFLD cell model assessed as cell viability at 0.1 to 0.5 uM compound administrated as copper complex measured at 24 hrs by MTT assay; assay type: functional, cell-based; conditions: dose 0.1-0.5 µM
[25] = Stability of the compound in cell culture medium containing 10% fetal bovine serum in presence of cysteine by UV-Vis spectrophotometer analysis; assay type: physicochemical, cell-free; conditions: cattle
HepG2 [26] = experiment: Anti-NAFLD activity in palmitic acid human HepG2 NAFLD cell model assessed as downregulation of STAT1 expression at 0.5 uM incubated for 24 hrs in presence of CuCl2 by mRNA sequencing analysis; assay type: functional, cell-based
HepG2 [27] = experiment: Anti-NAFLD activity in palmitic acid human HepG2 NAFLD cell model assessed as upregulation of MT1E expression at 0.5 uM incubated for 24 hrs in presence of CuCl2 by mRNA sequencing analysis; assay type: functional, cell-based
[28] = Toxicity in male C57BL/6 mouse assessed as heart lesion at 125 mg/kg, po compound administrated as copper complex measured for 10 weeks; assay type: organism-based; conditions: in vivo, 1680 h
Mus musculus [29] = experiment: Anti-NAFLD activity in high-fat diet-induced male C57BL/6J mouse model assessed as increase in Ru5P level in liver at 125 mg/kg, po compound administrated as copper complex measured for 10 weeks by LC-MS/MS analysis; assay type: functional, organism-based
HepG2 [30] = experiment: Anti-NAFLD activity in palmitic acid human HepG2 NAFLD cell model assessed as upregulation of CAT expression at 0.5 uM incubated for 24 hrs in presence of CuCl2 by mRNA sequencing analysis; assay type: functional, cell-based
Mus musculus [31] = experiment: Anti-NAFLD activity in high-fat diet-induced male C57BL/6J mouse model assessed as increase in R5P level in liver at 125 mg/kg, po compound administrated as copper complex measured for 10 weeks by LC-MS/MS analysis; assay type: functional, organism-based

For `O=c1c(O)c(-c2ccc3cccc(O)c3n2)oc2ccccc12`, the Activity (HepG2 [1]) was 31%, the Activity (HepG2 [2]) was “Active” and the Activity (Mus musculus [3]) was “Active”. The Activity (HepG2 [4]) was “Active”, the Activity (HepG2 [5]) was “Active” and the “fold change (FC)” value [6] was ~5. The Activity (HepG2 [7]) was “Active”, the Activity (HepG2 [8]) was “Active” and the Activity (Mus musculus [9]) was “Active”. For the same compound, the Activity (Mus musculus [10]) was “Active”, the Activity (HepG2 [11]) was “Active” and the Stability [12] was “Stable”. The Activity [13] was “Non-toxic”, the Activity (HepG2 [14]) was “Active” and the Stability [15] was “Stable”. The Activity (Mus musculus [16]) was “Active”, the Activity (Mus musculus [17]) was “Active” and the Activity (Mus musculus [18]) was “Active”. For the same compound, the Activity (HepG2 [19]) was “Active”, the Activity (Mus musculus [20]) was “Active” and the Activity [21] was “Non-toxic”. For the same compound, the Activity (HepG2 [22]) was “Active”, the Activity (HepG2 [23]) was “Active” and the Activity (HepG2 [24]) was “Active”. For the same compound, the Stability [25] was “Stable”, the Activity (HepG2 [26]) was “Active” and the Activity (HepG2 [27]) was “Active”. For the same compound, the Activity [28] was “Non-toxic”, the Activity (Mus musculus [29]) was “Active” and the Activity (HepG2 [30]) was “Active”. The Activity (Mus musculus [31]) was “Active”.
